Laboratory results taken from patent publication US10836743B2, “Fluorinated cyclopropylamine compound, preparation method therefor, pharmaceutical composition thereof, and uses thereof” (SHANGHAI INSTITUTE OF MATERIA MEDICA, CHINESE ACADEMY OF …, priority 2016, dated 2020).
Read-outs that look alike come from different tables or passages of the source.

System: leukemia cells MV4-11
Assay: Inhibitory activity on growth by MTS method
Assay type: cell-based
Details: Homo sapiens
Procedure: 2. Test of Inhibitory Activities of Compound on Growth by MTS Method Experimental Principle:
MTS assay detects the inhibitory effect of the tested compound to the growth of leukemia cells MV (4:11). The principle is that succinate dehydrogenase in mitochondria in living cells can reduce exogenous thiazole blue to insoluble blue crystal Formazan.
• 1. MV4-11 cells in logarithmic growth phase were accurately counted at 16000 cells/mL, and the diluted cell solution was added to 96-well plates at 90 μL per well. • 2. Fresh medium was taken and sequentially added to a 96-well plate with cell fluid at 90 μL per well. • 3. […] 2 μL of the diluted compound was respectively added to a 96-well plate containing 98 μL of blank medium, and for DMSO group, 98 μL of blank medium was added into 2 μL of DMSO, and mixed for further use. • 5. The compound mixed with the medium was separately added to a 96-well plate in which cells were plated, in triplicate, 20 μL per well, and were mixed. The blank group was added with 200 μL of IMDM medium, and the DMSO group was added with 180 μL of the cell-containing medium in DMSO diluted with the medium. • 6. […]

[1] = 72 h, MV4-11, 3 days, read-out: MTS 3 D
[2] = 240 h, MV4-11, 10 days, read-out: MTS 10 D

SMILES	IC50 [1] [µM]	IC50 [2] [µM]
FC1(CN[C@@H]2C[C@H]2c2ccccc2)CCN(Cc2ccccc2)CC1 (relative stereo) [Example A6, N-((1-Benzyl-4-fluoropiperidin-4-yl)methyl)-trans-2-phenylcyclopropylamine]	> 20	1.02 ± 2.44
O=C(CCc1ccccc1)N1CCC(F)(CN[C@@H]2C[C@H]2c2ccccc2)CC1 (relative stereo) [Example A8, 1-(4-fluoro-4-(((trans-2-phenylcyclopropyl)amino)methyl)piperidin-1-yl)-3-phenyl-1-propanone]	> 20	0.27 ± 0.37
O=C(CCC1CCCCC1)N1CCC(F)(CN[C@@H]2C[C@H]2c2ccccc2)CC1 (relative stereo) [Example A10, 3-cyclohexyl-1-(4-fluoro-4-(((trans-2-phenylcyclopropyl)amino)methyl)piperidin-1-yl)-1-propanone]	> 20	0.6 ± 1.09
FC1(CN[C@@H]2C[C@H]2c2ccccc2)CCN(CCCc2ccccc2)CC1 (relative stereo) [Example A12, N-((4-fluoro-1-(3-phenylpropyl)piperidin-4-yl)methyl)-trans-2-phenylcyclopropylamine]	> 20	0.96
FC1(CN[C@@H]2C[C@H]2c2ccccc2)CCN(CCCC2CCCCC2)CC1 (relative stereo) [Example A14, N-((1-(3-Cyclohexylpropyl)-4-fluoropiperidin-4-yl)methyl)-trans-2-phenylcyclopropylamine]	8.17 ± 0.35	13 ± 0.42
CN1CCC(F)(CN[C@@H]2C[C@H]2c2ccccc2)CC1 (relative stereo) [Example A15, N-((4-Fluoro-1-methylpiperidin-4-yl)methyl)-trans-2-phenylcyclopropylamine]	> 20	0.33 ± 0.16
FC1(CN[C@@H]2C[C@H]2c2ccccc2)CCCCC1 (relative stereo) [Example A18, N-((1-Fluorocyclohexyl)methyl)-trans-2-phenylcyclopropylamine]	> 20	3 ± 5.19
CS(=O)(=O)N1CCC(F)(CN[C@@H]2C[C@H]2c2ccccc2)CC1 (relative stereo) [Example A93, N-((4-Fluoro-1-(methylsulfonyl)piperidin-4-yl)methyl)-trans-2-phenylcyclopropylamine]	> 20	0.239 ± 0.004
O=C(OCC1CNC1)N1CCC(F)(CN[C@@H]2C[C@H]2c2ccccc2)CC1 (relative stereo) [Example A94, Azetidin-3-ylmethyl 4-fluoro-4-(((trans-2-phenylcyclopropyl)amino)methyl)piperidine-1-carboxylate]	> 20	0.039 ± 0.011
O=C(OC1CCNCC1)N1CCC(F)(CN[C@@H]2C[C@H]2c2ccccc2)CC1 (relative stereo) [Example A95, Piperidin-4-yl 4-fluoro-4-(((trans-2-phenylcyclopropyl)amino)methyl)piperidine-1-carboxylate]	> 20	1.24 ± 0.844
N#Cc1ccc(CN2CCC(F)(CN[C@@H]3C[C@H]3c3ccccc3)CC2)cc1 (relative stereo) [Example A96, 4-((4-Fluoro-4-(((trans-2-phenylcyclopropyl)amino)methyl)piperidin-1-yl)methyl)benzonitrile]	> 20	0.159 ± 0.074
FC1(CN[C@@H]2C[C@H]2c2ccccc2)CCN(Cc2ccsc2)CC1 (relative stereo) [Example A98, N-((4-Fluoro-1-(thiophen-3-ylmethyl)piperidin-4-yl)methyl)-trans-2-phenylcyclopropylamine]	> 20	0.064 ± 0.026
O=C(O)c1ccc(CN2CCC(F)(CN[C@@H]3C[C@H]3c3ccccc3)CC2)cc1 [(1R,2S)-A5, 4-((4-Fluoro-4-((((1R,2S)-2-phenylcyclopropyl)amino)methyl)piperidin-1-yl)methyl)benzoate]	> 20	0.29 ± 0.19
O=C(O)c1ccc(CN2CCC(F)(CN[C@H]3C[C@@H]3c3ccccc3)CC2)cc1 [(1S,2R)-A5, 4-((4-Fluoro-4-((((1S,2R)-2-phenylcyclopropyl)amino)methyl)piperidin-1-yl)methyl)benzoate]	> 20	3.77 ± 1.19
O=C(OCC1CCNCC1)N1CCC(F)(CN[C@H]2C[C@@H]2c2ccccc2)CC1 [(1S,2R)-A43]	> 20	0.96 ± 0.444
O=C(Oc1ccccc1)N1CCC(F)(CNC2CC2c2ccccc2)CC1 (stereo not drawn) [Example A9, Phenyl 4-Fluoro-4-((trans-2-phenylcyclopropyl)amino)methyl)piperidine-1-carboxylate]	> 20	1.16 ± 0.15
O=C(NC1CCC(F)(CNC2CC2c2ccccc2)CC1)OCc1ccccc1 (stereo not drawn) [Example A19, Benzyl 4-fluoro-4-((trans-2-phenylcyclopropyl)amino)methyl)cyclohexyl)carbamate]	> 20	2.57 ± 1.66
O=C(O)c1ccc(CN2CCC(COC(=O)N3CCC(F)(CNC4CC4c4ccccc4)CC3)CC2)cc1 (centres unmarked) [Example A91]	> 20	1.7 ± 0.83
CC(C)(C)OC(=O)c1ccc(CN2CCC(F)(CNC3CC3c3ccc(-c4ccc(F)cc4)s3)CC2)cc1 (centres unmarked) [Example A105, Tert-butyl 4-((4-fluoro-4-(((2-(5-(4-fluorophenyl)thiophen-2-yl)cyclopropyl)amino)methyl)piperidin-1-yl)methyl)benzoate]	1.95 ± 0.6	8.35 ± 0.71
CC(C)(C)OC(=O)c1ccc(CN2CCC(F)(CNC3CC3c3ccc(-c4ccc(Cl)cc4)s3)CC2)cc1 (centres unmarked) [Example A106]	1.71 ± 0.22	9.99 ± 1.5
CC(C)(C)OC(=O)c1ccc(CN2CCC(F)(CNC3CC3c3ccc(-c4cccc5ccccc45)s3)CC2)cc1 (centres unmarked) [Example A109, tert-Butyl 4-((4-fluoro-4-(((2-(5-(naphthalen-1-yl)thiophen-2-yl)cyclopropyl)amino)methyl)piperidine-1-yl)methyl)benzoate]	2.1 ± 0.12	4.7 ± 1.68
COc1ccc(-c2ccc(C3CC3NCC3(F)CCN(C(=O)OCC4CCNCC4)CC3)cn2)cc1 (centres unmarked) [Example A112, Piperidin-4-ylmethyl 4-fluoro-4-(((2-(6-(4-methoxyphenyl)pyridin-3-yl)cyclopropyl)amino)methyl)piperidine-1-carboxylate]	> 20	> 20

The remaining lines, values ahead:

IC50 [1] [µM]	IC50 [2] [µM]	SMILES
> 20	–	CS(=O)(=O)c1ccc(CN2CCC(F)(CN[C@@H]3C[C@H]3c3ccccc3)CC2)cc1 (relative stereo) [Example A16, N-((4-Fluoro-1-(4-(methylsulfonyl)benzyl)piperidin-4-yl)methyl)-trans-2-phenylcyclopropylamine]
> 20	–	CNC1CCC(F)(CNC2CC2c2ccccc2)CC1 (stereo not drawn) [Example A11, 4-fluoro-N-methyl-4-(((trans-2-phenylcyclopropyl)amino)methyl)cyclohexane-1-amine]
> 20	0.132 ± 0.055	O=S(=O)(CC1CCNCC1)N1CCC(F)(CNC2CC2c2ccccc2)CC1 (stereo not drawn) [Example A92, N-((4-Fluoro-1-(piperidin-4-ylmethyl)sulfonyl)piperidin-4-yl)methyl)-trans-2-phenylcyclopropylamine]
2.21 ± 0.63	> 20	CC(C)(C)OC(=O)c1ccc(CN2CCC(F)(CNC3CC3c3ccc(Br)s3)CC2)cc1 (centres unmarked) [Example A101, Tert-Butyl 4-((4-(((2-(5-bromothien-2-yl))cyclopropyl)amino)methyl)-4-fluoropiperidin-1-yl)methyl)benz Oate]
> 20	> 20	O=C(O)c1ccc(CN2CCC(F)(CNC3CC3c3ccc(Br)s3)CC2)cc1 (centres unmarked) [Example A102]
0.75 ± 0.15	13 ± 1.9	CC(C)(C)OC(=O)c1ccc(CN2CCC(F)(CNC3CC3c3ccc(-c4ccc(C(F)(F)F)cc4)s3)CC2)cc1 (centres unmarked) [Example A107, Tert-butyl 4-((4-fluoro-4-(((2-(5-(4-(trifluoromethyl)phenyl)thiophen-2-yl)cyclopropyl)amino)methyl)piperidin-1-yl)methyl)benzoate]
2.64 ± 0.97	11.9 ± 2.04	CC(C)(C)OC(=O)c1ccc(CN2CCC(F)(CNC3CC3c3ccc(-c4ccccc4)s3)CC2)cc1 (centres unmarked) [Example A108, Tert-butyl 4-((4-fluoro-4-(((2-(5-phenylthiophen-2-yl)cyclopropyl)amino)methyl)piperidin-1-yl)methyl)benzoate]
2.59 ± 0.14	5.93 ± 0.35	O=C(OCC1CCNCC1)N1CCC(F)(CNC2CC2c2ccc(-c3ccc(C(F)(F)F)cc3)s2)CC1 (centres unmarked) [Example A110, Piperidin-4-ylmethyl 4-fluoro-4-(((2-(5-(4-(trifluoromethyl)phenyl)thiophen-2-yl)cyclopropyl)amino)methyl) piperidine-1-carboxylate]
> 20	19.9 ± 0.86	O=C(OCC1CCNCC1)N1CCC(F)(CNC2CC2c2ccc(Br)s2)CC1 (centres unmarked) [Example A111, Piperidin-4-ylmethyl 4-(((2-(5-bromothien-2-yl)cyclopropyl)amino)methyl)-4-fluoropiperidine-1-carboxylate]
> 20	> 20	O=C(OCC1CCNCC1)N1CCC(F)(CNC2CC2c2ccc(C3CC3)s2)CC1 (centres unmarked) [Example A113, Piperidin-4-ylmethyl 4-(((2-(5-cyclopropylthien-2-yl)cyclopropyl)amino)methyl)-4-fluoropiperidine-1-carboxylate]
